Test results from US20140288026A1, “IN[…]” (MAGNA E[…]., priority 2011, published 2014).

Assay: Hydrolysis of dilute aqueous insecticide solution (EPA OPPT 835.2130 Hydrolysis as a Function of pH and Temperature)
Format: physicochemical
Details: for Bifenthrin remaining: same solution plus 220ppm polymer particles (55% solids vinyl acetate-ethylene copolymer latex, Tg 10° C.)
Description: In fact, we have made dilute aqueous solutions of Bifenthrin (0.0895 ppm at pH 11.0) in accordance with EPA Fate, Transport and Transformation Test Guidelines OPPT 835.2130 Hydrolysis as a Function of pH and Temperature. After 5 hours at 25° C. only 45% of the insecticide could be detected in the solution and after 15 hours only 12% remained.

## Cc1c(COC(=O)[C@@H]2[C@H](/C=C(\Cl)C(F)(F)F)C2(C)C)cccc1-c1ccccc1 (racemic) [Bifenthrin]
0.0895 ppm aqueous solution at pH 11.0, 25° C., after 5 hours, no polymer particles
  insecticide detected in the solution: 45%
0.0895 ppm aqueous solution at pH 11.0, 25° C., after 15 hours, no polymer particles
  insecticide remaining in the solution: 12%
After 5 hours
  Bifenthrin remaining: 95%
After 15 hours
  Bifenthrin remaining: 93%
